Experimental data reported in patent US20180200257A1, “METHODS FOR THE TREATMENT OF INFLAMMATORY DISORDERS” (Galapagos NV, priority 2015, published 2018).

Tested on: subjects with moderately to severely active RA who have an inadequate response to methotrexate (MTX)
Test: Study 2 (monotherapy) - Aspartate Aminotransferase (AST) levels
Assay type: in vivo, human
Description: Randomized, double-blind, placebo-controlled, multicenter, phase IIb dose finding study of Compound 1 (dosed as a [Compound 1:HCl:3H2O]) administered for 24 weeks as monotherapy to subjects with moderately to severely active rheumatoid arthritis who have an inadequate response to methotrexate alone
Double-blind, placebo-controlled, monotherapy study in subjects with moderately to severely active RA who have an inadequate response to methotrexate (MTX) (oral or parenteral).
280 subjects randomized to one of 3 doses of Compound 1 (dosed as a [Compound 1:HCl:3H2O]) or to placebo, given once daily (q.d.).
Twelve weeks of treatment with Compound 1 (dosed as a [Compound 1:HCl:3H2O]) at 50 mg, 100 mg, or 200 mg q.d.; or placebo. At Week 12, all subjects on placebo and the subjects on the 50 mg dose who have not achieved 20% improvement in swollen joint count (SJC66) and tender joint count (TJC68) will be assigned to 100 mg q.d. in a blinded fashion and will continue treatment until Week 24. Subjects in the other groups will maintain their randomized treatment until Week 24.
AST levels determination is available at Quest Diagnostics, Clinical Trials, Quest House, 125-135 Staines Road, Hounslow, Middlesex, TW3 3JB, United Kingdom under Catalogue n#84450. For Study 3, the data are obtained at BARC Europe, 3B,Industrie Park, Zwijnaarde, B-9052 Ghent, Belgium.
AST catalyzes the transamination of aspartate and 2-oxoglutarate, forming L-glutamate and oxalacetate. The oxalacetate is reduced to L-malate by malate dehydrogenase, whilst NADH is converted to NAD+, measured spectrophotometrically. Guidelines for the AST value have been issued by the association for Clinical Biochemistry and Laboratory Medicine, 130-132 Tooley Street LONDON SE1 2TU, united Kingdom, wherein the AST value should be below 34 U/l in Female and below 45 U/L in male. As disclosed in the respective study protocols for Study 1 or 2, at week 12, depending on the outcome of their treatment, the subjects may be continued in their initial treatment course, or reassigned to another treatment group in a randomized blinded fashion until week 24. Therefore, the number of subjects (N) for the period of either 12 weeks, or 24 weeks is provided to reflect this redistribution at week 12.
Subjects in the other groups maintained their randomized treatment until Week 24.

[1] = 12 weeks results, 50 mg q.d., week 1
[2] = 12 weeks results, 50 mg q.d., week 2
[3] = 12 weeks results, 50 mg q.d., week 4
[4] = 12 weeks results, 50 mg q.d., week 8
[5] = 12 weeks results, 50 mg q.d., week 12
[6] = 12 weeks results, 100 mg q.d., week 1
[7] = 12 weeks results, 100 mg q.d., week 2
[8] = 12 weeks results, 100 mg q.d., week 4
[9] = 12 weeks results, 100 mg q.d., week 8
[10] = 12 weeks results, 100 mg q.d., week 12
[11] = 12 weeks results, 200 mg q.d., week 1
[12] = 12 weeks results, 200 mg q.d., week 2
[13] = 12 weeks results, 200 mg q.d., week 4
[14] = 12 weeks results, 200 mg q.d., week 8
[15] = 12 weeks results, 200 mg q.d., week 12
[16] = 24 weeks results, 50 mg q.d. non responders switching to 100 mg q.d. at week 12, week 1
[17] = 24 weeks results, 50 mg q.d. non responders switching to 100 mg q.d. at week 12, week 2
[18] = 24 weeks results, 50 mg q.d. non responders switching to 100 mg q.d. at week 12, week 4
[19] = 24 weeks results, 50 mg q.d. non responders switching to 100 mg q.d. at week 12, week 8
[20] = 24 weeks results, 50 mg q.d. non responders switching to 100 mg q.d. at week 12, week 12
[21] = 24 weeks results, 50 mg q.d. non responders switching to 100 mg q.d. at week 12, week 16
[22] = 24 weeks results, 50 mg q.d. non responders switching to 100 mg q.d. at week 12, week 20
[23] = 24 weeks results, 50 mg q.d. non responders switching to 100 mg q.d. at week 12, week 24
[24] = 24 weeks results, 50 mg q.d. responders, week 1
[25] = 24 weeks results, 50 mg q.d. responders, week 2
[26] = 24 weeks results, 50 mg q.d. responders, week 4
[27] = 24 weeks results, 50 mg q.d. responders, week 8
[28] = 24 weeks results, 50 mg q.d. responders, week 12
[29] = 24 weeks results, 50 mg q.d. responders, week 16
[30] = 24 weeks results, 50 mg q.d. responders, week 20
[31] = 24 weeks results, 50 mg q.d. responders, week 24
[32] = 24 weeks results, 100 mg q.d., week 1
[33] = 24 weeks results, 100 mg q.d., week 2
[34] = 24 weeks results, 100 mg q.d., week 4
[35] = 24 weeks results, 100 mg q.d., week 8
[36] = 24 weeks results, 100 mg q.d., week 12
[37] = 24 weeks results, 100 mg q.d., week 16
[38] = 24 weeks results, 100 mg q.d., week 20
[39] = 24 weeks results, 100 mg q.d., week 24
[40] = 24 weeks results, 200 mg q.d., week 1
[41] = 24 weeks results, 200 mg q.d., week 2
[42] = 24 weeks results, 200 mg q.d., week 4
[43] = 24 weeks results, 200 mg q.d., week 8
[44] = 24 weeks results, 200 mg q.d., week 12
[45] = 24 weeks results, 200 mg q.d., week 16
[46] = 24 weeks results, 200 mg q.d., week 20
[47] = 24 weeks results, 200 mg q.d., week 24
[48] = 24 weeks results, placebo switching to 100 mg q.d. at week 12, week 16
[49] = 24 weeks results, placebo switching to 100 mg q.d. at week 12, week 20
[50] = 24 weeks results, placebo switching to 100 mg q.d. at week 12, week 24

## O=C(Nc1nc2cccc(-c3ccc(CN4CCS(=O)(=O)CC4)cc3)n2n1)C1CC1 [Compound 1, cyclopropanecarboxylic acid {5-[4-(1,1-dioxo-thiomorpholin-4-ylmethyl)-phenyl]-[1,2,4]triazolo[1,5-a]pyridin-2-yl}-amide]
[1]
  Study 2 - AST Mean CFB: −1.8 IU/L
  Study 2 - AST Mean percentage CFB: 0.54%
[2]
  Study 2 - AST Mean CFB: −2.0 IU/L
  Study 2 - AST Mean percentage CFB: 1.54%
[3]
  Study 2 - AST Mean CFB: −1.7 IU/L
  Study 2 - AST Mean percentage CFB: −0.21%
[4]
  Study 2 - AST Mean CFB: −2.5 IU/L
  Study 2 - AST Mean percentage CFB: −0.42%
[5]
  Study 2 - AST Mean CFB: −0.2 IU/L
  Study 2 - AST Mean percentage CFB: 2.69%
[6]
  Study 2 - AST Mean CFB: 0.4 IU/L
  Study 2 - AST Mean percentage CFB: 8.99%
[7]
  Study 2 - AST Mean CFB: 1.3 IU/L
  Study 2 - AST Mean percentage CFB: 9.02%
[8]
  Study 2 - AST Mean CFB: 1.3 IU/L
  Study 2 - AST Mean percentage CFB: 15.05%
[9]
  Study 2 - AST Mean CFB: 1.9 IU/L
  Study 2 - AST Mean percentage CFB: 18.05%
[10]
  Study 2 - AST Mean CFB: 1.9 IU/L
  Study 2 - AST Mean percentage CFB: 16.02%
[11]
  Study 2 - AST Mean CFB: 0.1 IU/L
  Study 2 - AST Mean percentage CFB: 7.59%
[12]
  Study 2 - AST Mean CFB: 0.9 IU/L
  Study 2 - AST Mean percentage CFB: 11.22%
[13]
  Study 2 - AST Mean CFB: 0.8 IU/L
  Study 2 - AST Mean percentage CFB: 13.13%
[14]
  Study 2 - AST Mean CFB: 1.4 IU/L
  Study 2 - AST Mean percentage CFB: 16.67%
[15]
  Study 2 - AST Mean CFB: 1.1 IU/L
  Study 2 - AST Mean percentage CFB: 15.21%
[16]
  Study 2 - AST Mean CFB: −0.4 IU/L
  Study 2 - AST Mean percentage CFB: −1.15%
[17]
  Study 2 - AST Mean CFB: 0.3 IU/L
  Study 2 - AST Mean percentage CFB: 2.57%
[18]
  Study 2 - AST Mean CFB: 0.3 IU/L
  Study 2 - AST Mean percentage CFB: 2.84%
[19]
  Study 2 - AST Mean CFB: 0.0 IU/L
  Study 2 - AST Mean percentage CFB: 1.89%
[20]
  Study 2 - AST Mean CFB: 0.8 IU/L
  Study 2 - AST Mean percentage CFB: 7.36%
[21]
  Study 2 - AST Mean CFB: 0.8 IU/L
  Study 2 - AST Mean percentage CFB: 5.82%
[22]
  Study 2 - AST Mean CFB: 1.8 IU/L
  Study 2 - AST Mean percentage CFB: 13.66%
[23]
  Study 2 - AST Mean CFB: 2.6 IU/L
  Study 2 - AST Mean percentage CFB: 17.42%
[24]
  Study 2 - AST Mean CFB: −2.1 IU/L
  Study 2 - AST Mean percentage CFB: 0.98%
[25]
  Study 2 - AST Mean CFB: −2.6 IU/L
  Study 2 - AST Mean percentage CFB: 1.26%
[26]
  Study 2 - AST Mean CFB: −2.3 IU/L
  Study 2 - AST Mean percentage CFB: −1.03%
[27]
  Study 2 - AST Mean CFB: −3.2 IU/L
  Study 2 - AST Mean percentage CFB: −1.06%
[28]
  Study 2 - AST Mean CFB: −0.5 IU/L
  Study 2 - AST Mean percentage CFB: 1.37%
[29]
  Study 2 - AST Mean CFB: 0.5 IU/L
  Study 2 - AST Mean percentage CFB: 8.81%
[30]
  Study 2 - AST Mean CFB: 0.5 IU/L
  Study 2 - AST Mean percentage CFB: 7.58%
[31]
  Study 2 - AST Mean CFB: −0.5 IU/L
  Study 2 - AST Mean percentage CFB: 5.14%
[32]
  Study 2 - AST Mean CFB: 0.4 IU/L
  Study 2 - AST Mean percentage CFB: 8.99%
[33]
  Study 2 - AST Mean CFB: 1.3 IU/L
  Study 2 - AST Mean percentage CFB: 9.02%
[34]
  Study 2 - AST Mean CFB: 1.3 IU/L
  Study 2 - AST Mean percentage CFB: 15.05%
[35]
  Study 2 - AST Mean CFB: 1.9 IU/L
  Study 2 - AST Mean percentage CFB: 18.05%
[36]
  Study 2 - AST Mean CFB: 1.9 IU/L
  Study 2 - AST Mean percentage CFB: 16.02%
[37]
  Study 2 - AST Mean CFB: 5.4 IU/L
  Study 2 - AST Mean percentage CFB: 23.15%
[38]
  Study 2 - AST Mean CFB: 2.4 IU/L
  Study 2 - AST Mean percentage CFB: 23.16%
[39]
  Study 2 - AST Mean CFB: 1.5 IU/L
  Study 2 - AST Mean percentage CFB: 15.75%
[40]
  Study 2 - AST Mean CFB: 0.1 IU/L
  Study 2 - AST Mean percentage CFB: 7.59%
[41]
  Study 2 - AST Mean CFB: 0.9 IU/L
  Study 2 - AST Mean percentage CFB: 11.22%
[42]
  Study 2 - AST Mean CFB: 0.8 IU/L
  Study 2 - AST Mean percentage CFB: 13.13%
[43]
  Study 2 - AST Mean CFB: 1.4 IU/L
  Study 2 - AST Mean percentage CFB: 16.67%
[44]
  Study 2 - AST Mean CFB: 1.1 IU/L
  Study 2 - AST Mean percentage CFB: 15.21%
[45]
  Study 2 - AST Mean CFB: 2.2 IU/L
  Study 2 - AST Mean percentage CFB: 21.14%
[46]
  Study 2 - AST Mean CFB: 1.7 IU/L
  Study 2 - AST Mean percentage CFB: 17.43%
[47]
  Study 2 - AST Mean CFB: 1.4 IU/L
  Study 2 - AST Mean percentage CFB: 17.74%
[48]
  Study 2 - AST Mean CFB: 0.9 IU/L
  Study 2 - AST Mean percentage CFB: 8.60%
[49]
  Study 2 - AST Mean CFB: 2.2 IU/L
  Study 2 - AST Mean percentage CFB: 16.10%
[50]
  Study 2 - AST Mean CFB: 2.1 IU/L
  Study 2 - AST Mean percentage CFB: 13.64%
